Species on record: Rattus norvegicus
Assay: DrugMatrix - Regimen: Daily Repeat
Type: toxicity, organism-based, Sprague-Dawley
Set-up: regimen Daily Repeat, gender Male, age 6-8 weeks
Conditions: in vivo, po, route oral GAVAGE, vehicle 100 % WATER; for ABSOLUTE BASOPHIL / ABSOLUTE EOSINOPHIL / ABSOLUTE LYMPHOCYTE / ABSOLUTE MONOCYTE / ABSOLUTE SEGMENTED NEUTROPHIL / BASOPHIL / EOSINOPHIL / ERYTHROCYTE COUNT / HEMATOCRIT / HEMOGLOBIN / LEUKOCYTE COUNT / LYMPHOCYTE / MEAN CORPUSCULAR HEMOGLOBIN / MEAN CORPUSCULAR HEMOGLOBIN CONCENTRATION / MEAN CORPUSCULAR VOLUME / MONOCYTE / NEUTROPHIL / NUCLEATED RED BLOOD CELLS / PLATELET COUNT: tissue Blood; for ALANINE AMINOTRANSFERASE / ALBUMIN / ALKALINE PHOSPHATASE / ASPARTATE AMINOTRANSFERASE / BLOOD UREA NITROGEN / CARBON DIOXIDE / CHLORIDE / CHOLESTEROL / CREATINE PHOSPHOKINASE / CREATININE / GLUCOSE / LACTATE DEHYDROGENASE / LIPASE / PHOSPHORUS / POTASSIUM / SODIUM / TOTAL BILIRUBIN / TOTAL PROTEIN / URIC ACID: tissue Plasma
[1] = 0 mg/kg, 72 h, dose level Control, time 3 day
[2] = 0 mg/kg, 120 h, dose level Control, time 5 day
[3] = 60 mg/kg, 72 h, dose level Low, time 3 day

SMILES: CC(C)C[C@H](NC(=O)[C@@H](O)[C@H](N)Cc1ccccc1)C(=O)O [UBENIMEX]
- ABSOLUTE BASOPHIL [1]: 0 CELLS/uL
- ABSOLUTE EOSINOPHIL [1]: 168.33 CELLS/uL
- ABSOLUTE LYMPHOCYTE [1]: 13654.17 CELLS/uL
- ABSOLUTE MONOCYTE [1]: 121 CELLS/uL
- ABSOLUTE SEGMENTED NEUTROPHIL [1]: 1223.17 CELLS/uL
- BASOPHIL [1]: 0%
- EOSINOPHIL [1]: 1.17%
- ERYTHROCYTE COUNT [1]: 5.7 x10E6/uL
- HEMATOCRIT [1]: 35.33%
- HEMOGLOBIN [1]: 13.97 G/DL
- LEUKOCYTE COUNT [1]: 15.17 x10E3/uL
- LYMPHOCYTE [1]: 89.83%
- MEAN CORPUSCULAR HEMOGLOBIN [1]: 24.53 pg
- MEAN CORPUSCULAR HEMOGLOBIN CONCENTRATION [1]: 39.53 G/DL
- MEAN CORPUSCULAR VOLUME [1]: 62.05 fL
- MONOCYTE [1]: 0.83%
- NEUTROPHIL [1]: 8.17%
- NUCLEATED RED BLOOD CELLS [1]: 0 /100WBC
- PLATELET COUNT [1]: 1312.17 x10E3/uL
- ALANINE AMINOTRANSFERASE [1]: 50.83 u/L
- ALBUMIN [1]: 4.18 G/DL
- ALKALINE PHOSPHATASE [1]: 334.17 u/L
- ASPARTATE AMINOTRANSFERASE [1]: 82.17 u/L
- BLOOD UREA NITROGEN [1]: 15.5 mg/dL
- CARBON DIOXIDE [1]: 31.33 mmol/L
- CHLORIDE [1]: 99.83 MEQ/L
- CHOLESTEROL [1]: 76 mg/dL
- CREATINE PHOSPHOKINASE [1]: 272.17 u/L
- CREATININE [1]: 0.17 mg/dL
- GLUCOSE [1]: 143 mg/dL
- LACTATE DEHYDROGENASE [1]: 157.5 u/L
- LIPASE [1]: 9.33 u/L
- PHOSPHORUS [1]: 12.18 mg/dL
- POTASSIUM [1]: 6.78 MEQ/L
- SODIUM [1]: 143.9 MEQ/L
- TOTAL BILIRUBIN [1]: 0.22 mg/dL
- TOTAL PROTEIN [1]: 5.85 G/DL
- URIC ACID [1]: 1.7 mg/dL
- ABSOLUTE BASOPHIL [2]: 0 CELLS/uL
- ABSOLUTE EOSINOPHIL [2]: 0 CELLS/uL
- ABSOLUTE LYMPHOCYTE [2]: 13539.33 CELLS/uL
- ABSOLUTE MONOCYTE [2]: 177.67 CELLS/uL
- ABSOLUTE SEGMENTED NEUTROPHIL [2]: 2116.33 CELLS/uL
- BASOPHIL [2]: 0%
- EOSINOPHIL [2]: 0%
- ERYTHROCYTE COUNT [2]: 5.78 x10E6/uL
- HEMATOCRIT [2]: 36.13%
- HEMOGLOBIN [2]: 14.1 G/DL
- LEUKOCYTE COUNT [2]: 15.83 x10E3/uL
- LYMPHOCYTE [2]: 85.83%
- MEAN CORPUSCULAR HEMOGLOBIN [2]: 24.42 pg
- MEAN CORPUSCULAR HEMOGLOBIN CONCENTRATION [2]: 39 G/DL
- MEAN CORPUSCULAR VOLUME [2]: 62.55 fL
- MONOCYTE [2]: 0.83%
- NEUTROPHIL [2]: 13.33%
- NUCLEATED RED BLOOD CELLS [2]: 0.17 /100WBC
- PLATELET COUNT [2]: 1281.17 x10E3/uL
- ALANINE AMINOTRANSFERASE [2]: 55.5 u/L
- ALBUMIN [2]: 4.22 G/DL
- ALKALINE PHOSPHATASE [2]: 345 u/L
- ASPARTATE AMINOTRANSFERASE [2]: 92.5 u/L
- BLOOD UREA NITROGEN [2]: 16.5 mg/dL
- CARBON DIOXIDE [2]: 26.5 mmol/L
- CHLORIDE [2]: 103.5 MEQ/L
- CHOLESTEROL [2]: 78.5 mg/dL
- CREATINE PHOSPHOKINASE [2]: 381.5 u/L
- CREATININE [2]: 0.21 mg/dL
- GLUCOSE [2]: 161.83 mg/dL
- LACTATE DEHYDROGENASE [2]: 487.5 u/L
- LIPASE [2]: 10.17 u/L
- PHOSPHORUS [2]: 11.83 mg/dL
- POTASSIUM [2]: 6.4 MEQ/L
- SODIUM [2]: 146.95 MEQ/L
- TOTAL BILIRUBIN [2]: 0.22 mg/dL
- TOTAL PROTEIN [2]: 6.22 G/DL
- URIC ACID [2]: 1.83 mg/dL
- ABSOLUTE BASOPHIL [3]: 0 CELLS/uL
- ABSOLUTE EOSINOPHIL [3]: 99.33 CELLS/uL
- ABSOLUTE LYMPHOCYTE [3]: 13954.33 CELLS/uL
- ABSOLUTE MONOCYTE [3]: 91 CELLS/uL
- ABSOLUTE SEGMENTED NEUTROPHIL [3]: 1655.33 CELLS/uL
- BASOPHIL [3]: 0%
- EOSINOPHIL [3]: 0.67%
- ERYTHROCYTE COUNT [3]: 5.56 x10E6/uL
- HEMATOCRIT [3]: 33.13%
- HEMOGLOBIN [3]: 12.97 G/DL
- LEUKOCYTE COUNT [3]: 15.8 x10E3/uL
- LYMPHOCYTE [3]: 88.33%
- MEAN CORPUSCULAR HEMOGLOBIN [3]: 23.33 pg
- MEAN CORPUSCULAR HEMOGLOBIN CONCENTRATION [3]: 39.17 G/DL
- MEAN CORPUSCULAR VOLUME [3]: 59.53 fL
- MONOCYTE [3]: 0.67%
- NEUTROPHIL [3]: 10.33%
- NUCLEATED RED BLOOD CELLS [3]: 0 /100WBC
- PLATELET COUNT [3]: 1252.67 x10E3/uL
- ALANINE AMINOTRANSFERASE [3]: 58 u/L
- ALBUMIN [3]: 4.13 G/DL
- ALKALINE PHOSPHATASE [3]: 310.67 u/L
- ASPARTATE AMINOTRANSFERASE [3]: 96.67 u/L
- BLOOD UREA NITROGEN [3]: 15.67 mg/dL
- CARBON DIOXIDE [3]: 29.33 mmol/L
- CHLORIDE [3]: 100 MEQ/L
- CHOLESTEROL [3]: 80 mg/dL
- CREATINE PHOSPHOKINASE [3]: 475.33 u/L
- CREATININE [3]: 0.2 mg/dL
- GLUCOSE [3]: 142 mg/dL
- LACTATE DEHYDROGENASE [3]: 612.67 u/L
- LIPASE [3]: 9.67 u/L
- PHOSPHORUS [3]: 11.07 mg/dL
- POTASSIUM [3]: 6.61 MEQ/L
- SODIUM [3]: 143.5 MEQ/L
- TOTAL BILIRUBIN [3]: 0.17 mg/dL
- TOTAL PROTEIN [3]: 5.8 G/DL
- URIC ACID [3]: 1.47 mg/dL
